Results published in US9023789B2, “Amylin analogs and pharmaceutical compositions thereof” (Novo Nordisk A/S, priority 2012, dated 2015).
In brackets after ≈: the same amount, converted by molar mass. Like-named read-outs stand apart in the source and are kept apart here. Numbered stars: 1 amine (or outer) side, 2 acyl side, 3 side chain; on linkers, the order of the positions; unused ones are H or OH. Bridge positions count the residues as written; N and C are the ends. Side chains are listed from the residue outwards. Peptide text beside a SMILES is read from it. * marks the point of attachment. C20 diacid = O=C(O)CCCCCCCCCCCCCCCCCCC(=O)*; γGlu = O=C(O)[C@H](CCC(=O)[*:2])N[*:1]

Assays:
[1] = ASSAY (IV) determination of solubility; assay type: physicochemical
In short: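 Dissolve polypeptide in water ([…] stock); combine 1:1 with each 100 mM buffer (glycylglycine pH 3.0/4.0/5.0; bistrispropane pH 6.0/6.5/7.0/7.5/8.0); hold 18 hours at room temperature; centrifuge; quantify polypeptide by UPLC.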

rat calcitonin receptor = target: T1, rat calcitonin receptor (Rattus norvegicus, UniProt P32214); experiment: ASSAY (VIII) binding to the rat calcitonin receptor; conditions: Table 7, read-out: rCTR bind IC50
T1 construct: expressed in transfected cells; host or cells: BHK tk'ts 13 (transient, FuGENE 6), membranes
T1 sequence (P32214 25-479 isoform P32214-2 limits assumed): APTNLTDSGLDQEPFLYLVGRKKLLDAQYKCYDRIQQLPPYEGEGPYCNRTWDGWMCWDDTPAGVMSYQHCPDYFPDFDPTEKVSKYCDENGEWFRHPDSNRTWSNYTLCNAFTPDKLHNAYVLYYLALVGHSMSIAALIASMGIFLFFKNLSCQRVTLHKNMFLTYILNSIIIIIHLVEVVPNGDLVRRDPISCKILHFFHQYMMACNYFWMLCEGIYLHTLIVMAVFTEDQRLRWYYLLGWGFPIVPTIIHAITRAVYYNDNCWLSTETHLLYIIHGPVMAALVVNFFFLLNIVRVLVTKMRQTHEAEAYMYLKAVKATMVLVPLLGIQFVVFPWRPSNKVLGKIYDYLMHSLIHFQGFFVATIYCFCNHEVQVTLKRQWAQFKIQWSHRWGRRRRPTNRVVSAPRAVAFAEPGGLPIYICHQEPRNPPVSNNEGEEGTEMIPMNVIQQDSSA
In short: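 Rat calcitonin receptor is expressed transiently in BHK tk′ts 13 cells cultured in DMEM with 10% FBS. Roughly two days (approximately 48 hours) post-transfection, cells are harvested for membrane preparation.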

[2] = target: T2, human amylin receptor (membranes from Amylin 3(a)/CRE-luc cells) (Homo sapiens, UniProt O60896+P30988); experiment: ASSAY (V) binding to the human amylin receptor (SPA, 125I-rat amylin);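 further: competition binding of cell membranes (35 ng/µL) mixed with SPA beads in 384-well plates at 40 µL total volume, read by scintillation counting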
T2 construct: expressed in transfected cells
T2 sequence (P30988 25-474): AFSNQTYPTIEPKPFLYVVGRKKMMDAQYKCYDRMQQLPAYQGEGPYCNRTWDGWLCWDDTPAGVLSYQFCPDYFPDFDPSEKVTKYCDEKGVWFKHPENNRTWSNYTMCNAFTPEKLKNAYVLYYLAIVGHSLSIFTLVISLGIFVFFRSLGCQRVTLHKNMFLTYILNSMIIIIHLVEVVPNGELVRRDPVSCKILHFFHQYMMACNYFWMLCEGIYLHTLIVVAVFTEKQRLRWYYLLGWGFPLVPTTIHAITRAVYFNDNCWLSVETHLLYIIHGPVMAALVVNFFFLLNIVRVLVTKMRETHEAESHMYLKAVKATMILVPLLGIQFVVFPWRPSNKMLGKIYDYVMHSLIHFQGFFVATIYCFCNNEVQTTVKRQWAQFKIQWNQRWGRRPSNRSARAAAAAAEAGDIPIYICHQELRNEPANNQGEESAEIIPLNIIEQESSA
T2 sequence (O60896 24-148 partner): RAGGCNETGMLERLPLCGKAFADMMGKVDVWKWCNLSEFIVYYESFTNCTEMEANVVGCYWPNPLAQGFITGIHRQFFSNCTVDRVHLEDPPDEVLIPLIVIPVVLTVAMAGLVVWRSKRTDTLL

[3] = target: T3, rat amylin receptor (rat calcitonin receptor + rat RAMP 3) (Rattus norvegicus, UniProt P32214+Q9JJ73); experiment: ASSAY (VI) binding to the rat amylin receptor; conditions: for IC50: binding to rat amylin receptor, read-out: rAmylin-R bind IC50
T3 construct: expressed in transfected cells; host or cells: BHK tk'ts 13 (transient, FuGENE 6), membranes
T3 sequence (P32214 25-479 isoform P32214-2 limits assumed): T1 sequence (P32214 25-479 isoform P32214-2 limits assumed)
T3 sequence (Q9JJ73 23-147 partner): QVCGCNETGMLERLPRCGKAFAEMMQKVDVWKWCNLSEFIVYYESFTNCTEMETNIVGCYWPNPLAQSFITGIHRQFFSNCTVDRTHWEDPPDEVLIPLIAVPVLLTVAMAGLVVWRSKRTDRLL
In short: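 Binding to the rat amylin receptor was determined with membrane preparations. The receptor was expressed by transiently transfecting BHK tk′ts 13 cells with rat calcitonin receptor, using FuGENE® 6 (Roche) according to the manufacturer's recommendations. Roughly 48 hours later the cells were harvested and their membranes isolated.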

[4] = bistrispropane buffer, pH 6.5, read-out: Solubility pH 6.5 Concentration
[5] = bistrispropane buffer, pH 7.5, read-out: Solubility pH 7.5 Concentration
[6] = bistrispropane buffer, pH 6.0, read-out: Solubility pH 6.0 Concentration
[7] = bistrispropane buffer, pH 7.0, read-out: Solubility pH 7.0 Concentration
[8] = bistrispropane buffer, pH 8.0, read-out: Solubility pH 8.0 Concentration
[9] = glycylglycine buffer, pH 3.0, read-out: Solubility pH 3.0 Concentration
[10] = glycylglycine buffer, pH 4.0, read-out: Solubility pH 4.0 Concentration
[11] = glycylglycine buffer, pH 5.0, read-out: Solubility pH 5.0 Concentration
[12] = Table 5, selectivity, hCTR bind IC50 / hAmylin-R bind IC50
[13] = Table 5a, selectivity, hCTR bind IC50 / hAmylin-R bind IC50
[14] = Table 5b, selectivity, hCTR bind IC50 / hAmylin-R bind IC50
[15] = Table 5c, selectivity, hCTR bind IC50 / hAmylin-R bind IC50
[16] = Table 7, human binding selectivity, included for comparison
[17] = Table 7a (preferred compounds), human binding selectivity, included for comparison
[18] = ratio of human calcitonin receptor binding IC50 to human amylin receptor binding IC50
[19] = Table 7, rat binding selectivity, rCTR IC50 / rAmylin-R IC50
[20] = Table 7a (preferred compounds), rat binding selectivity, rCTR IC50 / rAmylin-R IC50
[21] = ratio of rCTR bind IC50 to rAmylin-R bind IC50

Row | solubility at 18 h [1, 4] [µM] | solubility at 18 h [1, 5] [µM] | solubility at 18 h [1, 6] [µM] | solubility at 18 h [1, 7] [µM] | solubility at 18 h [1, 8] [µM] | solubility at 18 h [1, 9] [µM] | solubility at 18 h [1, 10] [µM] | solubility at 18 h [1, 11] [µM] | IC50 (rat calcitonin receptor) [nM] | Ratio hCT/hAmylin binding [2, 12] | Ratio hCT/hAmylin binding [2, 13] | Ratio hCT/hAmylin binding [2, 14] | Ratio hCT/hAmylin binding [2, 15] | Ratio hCT/hAmylin binding [2, 16] | Ratio hCT/hAmylin binding [2, 17] | Ratio hCT/hAmylin binding [2, 18] | IC50 ([3]; Table 7) [nM] | Ratio rCT/rAmylin binding [3, 19] | Ratio rCT/rAmylin binding [3, 20] | Ratio rCT/rAmylin binding [3, 21] | Compound
1 | ≥ 200 | 183 (≈ 812 µg/mL) | ≥ 200 | ≥ 200 | 109 (≈ 484 µg/mL) | ≥ 200 | ≥ 200 | ≥ 200 | 62 | 37.5 | 37.5 | 37.5 | 37.5 | 37.5 | 37.5 | 37.5 | 0.523 | 118.6 | 118.6 | 118.6 | CC[C@H](C)[C@H](NC(=O)[C@H](C)NC(=O)CNC(=O)[C@H](Cc1ccccc1)NC(=O)[C@H](CC(N)=O)NC(=O)[C@@H]1CCCN1C(=O)[C@H](CO)NC(=O)[C@H](CO)NC(=O)[C@H](Cc1c[nH]cn1)NC(=O)[C@H](CCCNC(=N)N)NC(=O)[C@H](CC(C)C)NC(=O)[C@H](Cc1ccccc1)NC(=O)[C@H](CCC(=O)O)NC(=O)[C@H](C)NC(=O)[C@H](CC(C)C)NC(=O)[C@H](CCCNC(=N)N)NC(=O)[C@H](CCC(N)=O)NC(=O)[C@@H](NC(=O)[C@H](C)NC(=O)[C@@H]1CSSC[C@H](NC(=O)[C@@H](N)CCCCNC(=O)CC[C@H](NC(=O)CCCCCCCCCCCCCCCCCCC(=O)O)C(=O)O)C(=O)N[C@@H](CC(N)=O)C(=O)N[C@@H]([C@@H](C)O)C(=O)N[C@@H](C)C(=O)N[C@@H]([C@@H](C)O)C(=O)N1)[C@@H](C)O)C(=O)N1CCC[C@H]1C(=O)N[C@@H](CO)C(=O)N[C@@H](CO)C(=O)N[C@H](C(=O)N[C@@H](CC(N)=O)C(=O)N[C@H](C(=O)NCC(=O)N[C@@H](CO)C(=O)N[C@@H](CCCNC(=N)N)C(=O)N[C@H](C(=O)N[C@@H](Cc1ccc(O)cc1)C(N)=O)[C@@H](C)O)C(C)C)[C@@H](C)O [Example 51] (H-K([γGlu-C20 diacid])CNTATCATQRLAEFLRHSSPNFGAIPSSTNVGSRTY-NH2; disulfide 2-7 (inferred); N-terminus assumed)
2 | ≥ 200 | 88 (≈ 396 µg/mL) | ≥ 200 | 154 (≈ 693 µg/mL) | 113 (≈ 508 µg/mL) | ≥ 200 | 197 (≈ 886 µg/mL) | 195 (≈ 877 µg/mL) | 65.9 | 36.2 | 36.2 | 36.2 | 36.2 | 36.2 | 36.2 | 36.2 | 0.674 | 97.7 | 97.7 | 97.7 | CC[C@H](C)[C@H](NC(=O)[C@H](C)NC(=O)CNC(=O)[C@H](Cc1ccccc1)NC(=O)[C@H](CC(N)=O)NC(=O)[C@@H]1CCCN1C(=O)[C@H](CO)NC(=O)[C@H](CO)NC(=O)[C@H](Cc1c[nH]cn1)NC(=O)[C@H](CCCNC(=N)N)NC(=O)[C@H](CC(C)C)NC(=O)[C@H](Cc1ccccc1)NC(=O)[C@H](Cc1c[nH]cn1)NC(=O)[C@H](C)NC(=O)[C@H](CC(C)C)NC(=O)[C@H](CCCNC(=N)N)NC(=O)[C@H](CCC(N)=O)NC(=O)[C@@H](NC(=O)[C@H](C)NC(=O)[C@@H]1CSSC[C@H](NC(=O)[C@H](CCCNC(=N)N)NC(=O)CNC(=O)CC[C@H](NC(=O)CCCCCCCCCCCCCCCCCCC(=O)O)C(=O)O)C(=O)N[C@@H](CC(N)=O)C(=O)N[C@@H]([C@@H](C)O)C(=O)N[C@@H](C)C(=O)N[C@@H]([C@@H](C)O)C(=O)N1)[C@@H](C)O)C(=O)N1CCC[C@H]1C(=O)N[C@@H](CO)C(=O)N[C@@H](CO)C(=O)N[C@H](C(=O)N[C@@H](CC(N)=O)C(=O)N[C@H](C(=O)NCC(=O)N1CCC[C@H]1C(=O)N[C@@H](CC(N)=O)C(=O)N[C@H](C(=O)N[C@@H](Cc1ccc(O)cc1)C(N)=O)[C@@H](C)O)C(C)C)[C@@H](C)O [Example 102] ({C20 diacid-γGlu}-GRCNTATCATQRLAHFLRHSSPNFGAIPSSTNVGPNTY-NH2; disulfide 3-8 (inferred))
3 | ≥ 200 | ≥ 200 | ≥ 200 | ≥ 200 | ≥ 200 | ≥ 200 | ≥ 200 | ≥ 200 | 95.6 | 36.7 | 36.7 | 36.7 | 36.7 | 36.7 | 36.7 | 36.7 | 1.02 | 93.6 | 93.6 | 93.6 | CC[C@H](C)[C@H](NC(=O)[C@H](C)NC(=O)CNC(=O)[C@H](Cc1ccccc1)NC(=O)[C@H](CC(N)=O)NC(=O)[C@@H]1CCCN1C(=O)[C@H](CO)NC(=O)[C@H](CO)NC(=O)[C@H](Cc1c[nH]cn1)NC(=O)[C@H](CCCNC(=N)N)NC(=O)[C@H](CC(C)C)NC(=O)[C@H](Cc1ccccc1)NC(=O)[C@H](CCC(=O)O)NC(=O)[C@H](C)NC(=O)[C@H](CC(C)C)NC(=O)[C@H](CCCNC(=N)N)NC(=O)[C@H](CCC(N)=O)NC(=O)[C@@H](NC(=O)[C@H](C)NC(=O)[C@@H]1CSSC[C@H](NC(=O)[C@H](CCCCN)NC(=O)COCCOCCNC(=O)COCCOCCNC(=O)CC[C@H](NC(=O)CCCCCCCCCCCCCCCCCCC(=O)O)C(=O)O)C(=O)N[C@@H](CC(N)=O)C(=O)N[C@@H]([C@@H](C)O)C(=O)N[C@@H](C)C(=O)N[C@@H]([C@@H](C)O)C(=O)N1)[C@@H](C)O)C(=O)N1CCC[C@H]1C(=O)N[C@@H](CO)C(=O)N[C@@H](CO)C(=O)N[C@H](C(=O)N[C@@H](CC(N)=O)C(=O)N[C@H](C(=O)NCC(=O)N[C@@H](CO)C(=O)N[C@@H](CC(N)=O)C(=O)N[C@H](C(=O)N[C@@H](Cc1ccc(O)cc1)C(N)=O)[C@@H](C)O)C(C)C)[C@@H](C)O [Example 19]
